Results from patent US20230295201A1 (Gilead Sciences, Inc., priority 2020, published 2023).
Where two headings read alike, the source gives them in different places.

Key:
Type in all cases: cell-based
RSV A2 = assay: RSV NHBE EC50 (RSV A2 antiviral assay in normal human bronchial epithelial cells); settings: read-out: RSV NHBE EC50
HRV16 = HRV16 HELA EC50 (cytopathic effect in H1-HeLa cells)
Method in brief: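 Read-out is luminescent cell viability (CellTiter-Glo) after 96 h of infection at 33 °C, scaled between uninfected and infected-untreated wells. Before infection with titrated virus, compounds went onto H1-HeLa cells as triplicate 3-fold dilution series.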

DENV2 replicon = assay: DENV-2 Huh-7 Rep EC50 (replicon luminescence); settings: read-out: DENV-2 Huh-7 Rep EC50
Method in brief: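 EC50 derived from luminescence dose-response, normalised to DMSO-only 0% inhibition wells, after 1.5 h with EnduRen substrate. Compounds were first exposed for 48 h at 37° C to DENV2 replicon Huh-7 cells (5,000/well).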

RSV strain A2 = assay: RSV HEp-2 EC50 (infectious cytopathic cell protection assay); settings: read-out: RSV HEp-2 EC50
Method in brief: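 Percent inhibition of RSV-induced cytopathic effect came from remaining cell viability (CellTiter-Glo luminescence) after 4 days at 37° C. Compounds in 3-fold serial dilutions were exposed to an infectious mix of titered A2 virus and HEp-2 cells at 50,000/ml, with 0% and 100% inhibition control standards.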

[1] = tested on: Dengue serotype 2 New Guinea C (NGC) strain; assay: DENV-2 Huh-7 EC50 (qPCR in Huh7 cells)
Procedure: Huh7 (Human hepatocarcinoma 7) cells were maintained in 10% FCS-containing DMEM complete media. On the day of the assay, cells were trypsinized (0.1% Trypsin-EDTA), washed and infected for 2 hours in serum-free DMEM with Dengue serotype 2 New Guinea C (NGC) strain at MOI=0.1 with gentle agitation at 37° C. After 2 hours, cells were washed with serum-free media and suspended in 10% FCS-containing DMEM (Gibco, supplemented with sodium pyruvate, NEAA, Penicillin-Streptomycin). 10^5 cells were plated in triplicate in 96-well plates with compounds dispensed at graded doses (Hewlett-Packard D300 Digital Dispenser). All wells were normalized to 0.25% DMSO. At 48 hours, cells were washed with 1×PBS and all supernatants removed. Total RNA was extracted using RNEasy 96 plates (Qiagen) and used to generate first-strand cDNA using XLT cDNA 5×Supermix (QuantaBio). cDNA was used as a template in a Taqman qPCR duplex reaction specific to DENV2 viral and GAPDH gene expression. EC50 values were determined using Prism Graphpad software, with normalization to a positive control and no compound negative control wells.

[2] = H1-HeLa cells, 96 h, 33° C.; read-out: HRV16 HELA EC50
[3] = Dengue virus, DENV2, Huh-7, 48 h, Huh-7 replicon cells, 48 hours
[4] = human respiratory syncytial virus, HEp-2, 96 h, HEp-2 cells, RSV A2, 4 days
[5] = Dengue virus, DENV2, Huh-7, 48 h
[6] = human respiratory syncytial virus, NHBE, 96 h, NHBE cells, RSV A2, 4 days
[7] = 96 h, H1-HeLa cells, 33° C., read-out: HRV16 HELA EC50

In the case of C[C@H](N[P@](=O)(OC[C@@]1(C#N)O[C@@H](c2ccc3c(N)ncnn23)[C@H](O)[C@@H]1O)Oc1ccccc1)C(=O)OCC1CCC1 [Example 120], the EC50 (RSV A2; NHBE cells, RSV A2, 4 days) is reported as 104 nM, the EC50 (HRV16; [2]) is reported as 295 nM and the EC50 (DENV2 replicon; Huh-7 replicon cells, 48 hours) is reported as 7460 nM. For the same molecule, the EC50 (RSV strain A2; HEp-2 cells, RSV A2, 4 days) was 101 nM and the EC50 ([1]; 48 hours) was 798 nM.

In the case of C[C@H](NP(=O)(OC[C@@]1(C#N)O[C@@H](c2ccc3c(N)ncnn23)[C@H](O)[C@@H]1O)Oc1ccccc1)C(=O)OCC(C)(C)C(F)(F)F (stereo partly drawn) [Example 260, 3,3,3-trifluoro-2,2-dimethylpropyl ((((2R,3S,4R,5S)-5-(4-aminopyrrolo[2,1-f][1,2,4]triazin-7-yl)-2-cyano-3,4-dihydroxytetrahydrofuran-2-yl)methoxy)(phenoxy)phosphoryl)-L-alaninate], the EC50 (DENV2 replicon; [3]) is reported as 9950 nM, the EC50 (RSV strain A2; [4]) is reported as 66 nM and the EC50 [1, 5] is reported as 682 nM.

CCOC(=O)[C@H](C)NP(=O)(OC[C@@]1(C#N)O[C@@H](c2ccc3c(N)ncnn23)[C@H](O)[C@@H]1O)Oc1ccc(C(C)(C)C)cc1 (single isomer, unassigned) [Example 265] showed an EC50 (RSV strain A2; HEp-2 cells, RSV A2, 4 days) of 215 nM and an EC50 [1, 5] of 390 nM.

C[C@H](NP(=O)(OC[C@@]1(C#N)O[C@@H](c2ccc3c(N)ncnn23)[C@H](O)[C@@H]1O)Oc1ccccc1)C(=O)OCC1(C)CC1 (stereo partly drawn) [Example 257, (1-methylcyclopropyl)methyl ((((2R,3S,4R,5S)-5-(4-aminopyrrolo[2,1-f][1,2,4]triazin-7-yl)-2-cyano-3,4-dihydroxytetrahydrofuran-2-yl)methoxy)(phenoxy)phosphoryl)-L-alaninate] gave an EC50 (DENV2 replicon; [3]) of 5480 nM, an EC50 (RSV strain A2; [4]) of 29 nM and an EC50 [1, 5] of 2210 nM.

C[C@H](NP(=O)(OC[C@@]1(C#N)O[C@@H](c2ccc3c(N)ncnn23)[C@H](O)[C@@H]1O)Oc1ccccc1)C(=O)OC1CCCCCC1 (single isomer, unassigned) [Example 135] gave an EC50 (RSV A2; [6]) of 66 nM, an EC50 (RSV strain A2; HEp-2 cells, RSV A2, 4 days) of 233 nM and an EC50 [1, 5] of 1390 nM.

Work on COCCCOC(=O)[C@H](C)NP(=O)(OC[C@@]1(C#N)O[C@@H](c2ccc3c(N)ncnn23)[C@H](O)[C@@H]1O)Oc1ccccc1 (single isomer, unassigned) [Example 59] yielded an EC50 (RSV A2; NHBE cells, RSV A2, 4 days) of 111 nM, an EC50 (DENV2 replicon; Huh-7 replicon cells, 48 hours) of 56500 nM and an EC50 ([1]; 48 hours) of 4650 nM.

Work on CCOC(=O)[C@H](C)NP(=O)(OC[C@@]1(C#N)O[C@@H](c2ccc3c(N)ncnn23)[C@H](O)[C@@H]1O)Oc1ccc(C(C)(C)C)cc1 (mixture of isomers) [Example 263, Ethyl ((((2R,3S,4R,5S)-5-(4-aminopyrrolo[2,1-f][1,2,4]triazin-7-yl)-2-cyano-3,4-dihydroxytetrahydrofuran-2-yl)methoxy)(4-(tert-butyl)phenoxy)phosphoryl)-L-alaninate] yielded an EC50 (DENV2 replicon; [3]) of 8030 nM, an EC50 (RSV strain A2; [4]) of 35 nM and an EC50 [1, 5] of 569 nM.

With CCC(CC)COC(=O)[C@H](CCCCNC(=O)OCc1ccccc1)NP(=O)(OC[C@@]1(C#N)O[C@@H](c2ccc3c(N)ncnn23)[C@H](O)[C@@H]1O)Oc1ccccc1 (stereo partly drawn) [Example 79, 2-ethylbutyl N2-((((2R,3S,4R,5S)-5-(4-aminopyrrolo[2,1-f][1,2,4]triazin-7-yl)-2-cyano-3,4-dihydroxytetrahydrofuran-2-yl)methoxy)(phenoxy)phosphoryl)-N6-((benzyloxy)carbonyl)-L-lysinate] the EC50 (RSV A2; [6]) was greater than 5000 nM, the EC50 (HRV16; [7]) was greater than 34800 nM and the EC50 (DENV2 replicon; [3]) was 40200 nM. For the same molecule, the EC50 (RSV strain A2; [4]) was greater than 50000 nM.

For C[C@H](NP(=O)(OC[C@@]1(C#N)O[C@@H](c2ccc3c(N)ncnn23)[C@H](O)[C@@H]1O)Oc1ccccc1)C(=O)OC1CCN(C)CC1 (some centres unmarked) [Example 150], the EC50 (RSV A2; human respiratory syncytial virus, NHBE, in Homo sapiens, 96 h, NHBE cells, RSV A2, 4 days) was greater than 5000 nM, the EC50 (HRV16; [7]) was 49900 nM and the EC50 (DENV2 replicon; [3]) was greater than 100000 nM. It also gave an EC50 (RSV strain A2; [4]) of 4160 nM.

C[C@H](NP(=O)(OC[C@@]1(C#N)O[C@@H](c2ccc3c(N)ncnn23)[C@H](O)[C@@H]1O)Oc1ccccc1)C(=O)OC1CCCN(CC(F)(F)F)CC1 (stereo partly drawn) [Example 204, 1-(2,2,2-trifluoroethyl)azepan-4-yl ((((2R,3S,4R,5S)-5-(4-aminopyrrolo[2,1-f][1,2,4]triazin-7-yl)-2-cyano-3,4-dihydroxytetrahydrofuran-2-yl)methoxy)(phenoxy)phosphoryl)alaninate] gave an EC50 (RSV A2; [6]) of 628 nM, an EC50 (HRV16; [7]) of 1380 nM and an EC50 (DENV2 replicon; [3]) of 27500 nM. The EC50 (RSV strain A2; [4]) was 463 nM.

Work on N#C[C@]1(COP(=O)(N[C@H](C(=O)OCC2CC2)C2CCCC2)Oc2ccccc2)O[C@@H](c2ccc3c(N)ncnn23)[C@H](O)[C@@H]1O (stereo partly drawn) [Example 123, (2S)-cyclopropylmethyl 2-(((((2R,3S,4R,5S)-5-(4-aminopyrrolo[2,1-f][1,2,4]triazin-7-yl)-2-cyano-3,4-dihydroxytetrahydrofuran-2-yl)methoxy)(phenoxy)phosphoryl)amino)-2-cyclopentylacetate] yielded an EC50 (RSV A2; [6]) greater than 5000 nM, an EC50 (HRV16; [7]) greater than 100000 nM and an EC50 (DENV2 replicon; [3]) of 48500 nM. The EC50 (RSV strain A2; [4]) was greater than 100000 nM.

Work on CCC(CC)COC(=O)[C@H](C)NP(=O)(N[C@@H](C)C(=O)OCC(C)(C)C)OC[C@@]1(C#N)O[C@@H](c2ccc3c(N)ncnn23)[C@H](O)[C@@H]1O (stereo partly drawn) [Example 200, 2-ethylbutyl ((((2R,3S,4R,5S)-5-(4-aminopyrrolo[2,1-f][1,2,4]triazin-7-yl)-2-cyano-3,4-dihydroxytetrahydrofuran-2-yl)methoxy)(((S)-1-(neopentyloxy)-1-oxopropan-2-yl)amino)phosphoryl)-L-alaninate] yielded an EC50 (RSV A2; human respiratory syncytial virus, 96 h, NHBE cells, RSV A2, 4 days) of 125 nM, an EC50 (HRV16; [2]) of 5680 nM and an EC50 (DENV2 replicon; [5]) greater than 50000 nM. It also gave an EC50 (RSV strain A2; human respiratory syncytial virus, 96 h, HEp-2 cells, RSV A2, 4 days) of 1400 nM.

With CC(C)(C)C(=O)OCCNP(=O)(OCC1(C#N)OC(c2ccc3c(N)ncnn23)C(O)C1O)Oc1ccccc1 (single isomer, unassigned) [Example 12] the EC50 (RSV A2; NHBE cells, RSV A2, 4 days) was 29 nM, the EC50 (HRV16; [2]) was 1930 nM and the EC50 (DENV2 replicon; Huh-7 replicon cells, 48 hours) was greater than 50000 nM. It also gave an EC50 (RSV strain A2; HEp-2 cells, RSV A2, 4 days) of 244 nM.

C[C@H](NP(=O)(OC[C@@]1(C#N)O[C@@H](c2ccc3c(N)ncnn23)[C@H](O)[C@@H]1O)Oc1ccccc1)C(=O)OC1CCC(F)(F)CC1 (mixture of isomers) [Example 174, 4,4-difluorocyclohexyl ((((2R,3S,4R,5S)-5-(4-aminopyrrolo[2,1-f][1,2,4]triazin-7-yl)-2-cyano-3,4-dihydroxytetrahydrofuran-2-yl)methoxy)(phenoxy)phosphoryl)-L-alaninate] showed an EC50 (RSV A2; [6]) of 1390 nM, an EC50 (HRV16; [7]) of 748 nM and an EC50 (DENV2 replicon; [3]) of 33800 nM. It also gave an EC50 (RSV strain A2; [4]) of 257 nM.

For CCCCOC(=O)C1CCCN1P(=O)(OC[C@@]1(C#N)O[C@@H](c2ccc3c(N)ncnn23)[C@H](O)[C@@H]1O)Oc1ccccc1 (stereo in doubt) [Example 124, (2R)-butyl 1-((((2R,3S,4R,5S)-5-(4-aminopyrrolo[2,1-f][1,2,4]triazin-7-yl)-2-cyano-3,4-dihydroxytetrahydrofuran-2-yl)methoxy)(phenoxy)phosphoryl)pyrrolidine-2-carboxylate], the EC50 (RSV A2; human respiratory syncytial virus, NHBE, 96 h) was greater than 5000 nM, the EC50 (HRV16; 96 h, read-out: HRV16 HELA EC50) was greater than 86400 nM and the EC50 (DENV2 replicon; [5]) was greater than 100000 nM. For the same molecule, the EC50 (RSV strain A2; human respiratory syncytial virus, HEp-2, 96 h) was greater than 100000 nM.

For C[C@H](NP(=O)(OC[C@@]1(C#N)O[C@@H](c2ccc3c(N)ncnn23)[C@H](O)[C@@H]1O)Oc1ccccc1)C(=O)O[C@H]1CC[C@@H](C(F)(F)F)CC1 (single isomer, unassigned) [Example 180], the EC50 (RSV A2; NHBE cells, RSV A2, 4 days) was 833 nM, the EC50 (HRV16; [7]) was 851 nM and the EC50 (DENV2 replicon; [3]) was 6620 nM. The EC50 (RSV strain A2; HEp-2 cells, RSV A2, 4 days) was 142 nM.

C[C@H](NP(=O)(OC[C@@]1(C#N)O[C@@H](c2ccc3c(N)ncnn23)[C@H](O)[C@@H]1O)Oc1ccccc1)C(=O)OC1CCC1 (single isomer, unassigned) [Example 50] showed an EC50 (RSV A2; [6]) of 498 nM, an EC50 (HRV16; [7]) of 464 nM and an EC50 (DENV2 replicon; [3]) of 6920 nM. For the same molecule, the EC50 (RSV strain A2; [4]) was 44 nM.
